In brackets after ≈: the same amount, converted by molar mass. Each block holds one compound with its values, some of them ahead of it.
Tests used:
Enterobacter cloacae [1] = assay: Compound was evaluated for the antibacterial activity against Enterobacter cloacae with strain 233 (beta-Lactamase-positive (LAC+)); format: functional
Escherichia coli [2] = assay: Compound was evaluated for the antibacterial activity against Escherichia coli (RTEM+ organism).; format: functional
Escherichia coli [3] = assay: Compound was evaluated for the antibacterial activity against Escherichia coli with strain JC-S (beta-Lactamase-negative (LAC-)); format: functional
Enterobacter cloacae [4] = assay: Compound was evaluated for the antibacterial activity against Enterobacter cloacae with the strains beta-Lactamase-positive (LAC+); format: functional
Escherichia coli [5] = assay: Compound was evaluated for the antibacterial activity against Escherichia coli (RTEM+organism) at 10E6 colony forming units; format: functional
[6] = Relative hydrolysis rate (RHR) was evaluated against RTEM enzyme; format: ADME
Escherichia coli [7] = assay: Compound was evaluated for the antibacterial activity against Escherichia coli with strain NIHJ (beta-Lactamase-negative (LAC-)); format: functional
Escherichia coli [8] = assay: Compound was evaluated for the relative Vmax against Escherichia coli with strain 609 (beta-Lactamase-positive (LAC+)); format: ADME, organism-based
Escherichia coli [9] = assay: Compound was evaluated for the antibacterial activity against Escherichia coli with strain 609 (beta-Lactamase-positive (LAC+)); format: functional
Klebsiella aerogenes [10] = assay: Compound was evaluated for the antibacterial activity against Klebsiella aerogenes with strain K1+ at 10e4/10e6 colony forming units; 12.5/>100; format: functional
[11] = Relative hydrolysis rate (RHR) was evaluated against K1 enzyme; format: ADME
Klebsiella aerogenes [12] = assay: Compound was evaluated for the antibacterial activity against Klebsiella aerogenes with strain K1- at 10e4/10e6 colony forming units; 0.05/0.1; format: functional
Escherichia coli [13] = assay: Compound was evaluated for the antibacterial activity against Escherichia coli (RTEM-organism) at 10e4/10e6 colony forming units; <0.05/0.1; format: functional
Escherichia coli [14] = assay: Compound was evaluated for the antibacterial activity against Escherichia coli (RTEM+organism) at 10e4/10e6 colony forming units; 0.1/0.1; format: functional
Klebsiella aerogenes [15] = assay: Compound was evaluated for the antibacterial activity against Klebsiella aerogenes with strain K1- at 10e4/10e6 cfu; 0.4/1.6; format: functional
Escherichia coli [16] = assay: Compound was evaluated for the antibacterial activity against Escherichia coli (RTEM-organism) at 10e4/10e6 cfu; 0.4/1.6; format: functional
Klebsiella aerogenes [17] = assay: Compound was evaluated for the antibacterial activity against Klebsiella aerogenes with strain K1+ at 10e4/10e6 cfu; 100/>100; format: functional
Escherichia coli [18] = assay: Compound was evaluated for the antibacterial activity against Escherichia coli (RTEM+organism) at 10e4/10e6 cfu; 6.3/>100; format: functional
[19] = Compound was evaluated for the percentage remaining after 24 hr hydrolysis at a pH 7 at 37 degree Centigrade; conditions: buffer
[20] = Compound was evaluated for the relative Vmax against RTEM enzyme; format: ADME
Staphylococcus aureus [21] = assay: Relative hydrolysis rate (RHR) was evaluated against Staphylococcus aureus with strain PC1.; format: ADME, organism-based
Staphylococcus aureus [22] = assay: Compound was evaluated for the antibacterial activity against Staphylococcus aureus with strain beta-Lactamase-negative (LAC-); format: functional
Staphylococcus aureus [23] = assay: Compound was evaluated for the antibacterial activity against Staphylococcus aureus with strain beta-Lactamase-positive (LAC+); format: functional
Providencia rettgeri [24] = assay: Compound was evaluated for the antibacterial activity against Providencia rettgeri with the strains beta-Lactamase-positive (LAC+); format: functional
Klebsiella aerogenes [25] = assay: Compound was evaluated for the antibacterial activity against Klebsiella aerogenes with strain K1- at 10e4/10e6 cfu; 0.2/0.2; format: functional
Escherichia coli [26] = assay: Compound was evaluated for the antibacterial activity against Escherichia coli (RTEM+organism) at 10e4/10e6 cfu; 0.4/1.6; format: functional
Escherichia coli [27] = assay: Compound was evaluated for the antibacterial activity against Escherichia coli (RTEM-organism) at 10e4/10e6 cfu; 0.1/0.2; format: functional
[28] = Relative Vmax was reported; format: ADME
Escherichia coli [29] = assay: Percentage zonal reduction was evaluated against Escherichia coli; format: functional
Staphylococcus aureus [30] = assay: Percentage zonal reduction was evaluated against Staphylococcus aureus; format: functional
Providencia rettgeri [31] = assay: Compound was evaluated for the antibacterial activity against Providencia rettgeri with the strain beta-Lactamase-negative (LAC-); format: functional
Escherichia coli [32] = assay: Relative hydrolysis rate (RHR) was evaluated against Escherichia coli with the strain RTEM; format: ADME, organism-based
Escherichia coli [33] = assay: Compound was evaluated for the antibacterial activity against Escherichia coli (RTEM+organism) at 10e4/10e6 cfu; 0.8/3.1; format: functional
Escherichia coli [34] = assay: Compound was evaluated for the antibacterial activity against Escherichia coli (RTEM-organism) at 10e4/10e6 cfu; 1.6/1.6; format: functional

SMILES: CO[C@@]1(NC(=O)Cc2ccc(O)cc2)C(=O)N2C(C(=O)O)=C(CSc3nnnn3C)COC21 (stereo partly specified)
MIC (Enterobacter cloacae [1]): 100 µg/mL (≈ 210 µM) | MIC (Escherichia coli [2]): 0.8 µg/mL (≈ 1.68 µM) | MIC (Escherichia coli [3]): 0.1 µg/mL (≈ 0.21 µM)

SMILES: Cn1nnnc1SCC1=C(C(=O)O)N2C(=O)[C@@H](NC(=O)Cc3ccc(O)cc3)C2OC1 (stereo partly specified)
MIC (Enterobacter cloacae [1]): > 100 µg/mL | MIC (Escherichia coli [2]): > 100 µg/mL | MIC (Escherichia coli [3]): 0.8 µg/mL (≈ 1.79 µM)

SMILES: CO/N=C(\C(=O)N[C@@H]1C(=O)N2C(C(=O)O)=C(COC(C)=O)CSC12)c1csc(N)n1 (stereo partly specified)
MIC (Escherichia coli [5]): 0.1 µg/mL (≈ 0.22 µM) | RHR [6]: 100

SMILES: NCCSC1=C(C(=O)O)N2C(=O)[C@H](CO)C2S1 (stereo partly specified)
MIC (Escherichia coli [7]): 1.5 µg/mL (≈ 5.43 µM) | RVmax (Escherichia coli [8]): < 0.1 | MIC (Escherichia coli [9]): 3.1 µg/mL (≈ 11.2 µM)

SMILES: Cn1nnnc1SCC1=C(C(=O)O)N2C(=O)[C@@H](NC(=O)C(C(=O)O)c3ccc(O)cc3)C2OC1 (stereo partly specified)
MIC (Enterobacter cloacae [1]): 0.4 µg/mL (≈ 0.816 µM) | MIC (Escherichia coli [2]): 50 µg/mL (≈ 102 µM) | MIC (Escherichia coli [3]): 0.2 µg/mL (≈ 0.408 µM)

SMILES: CO/N=C(/C(=O)N[C@@H]1C(=O)N2C(C(=O)O)=C(CSc3nnnn3C)CSC12)c1csc(N)n1 (stereo partly specified)
MIC (Enterobacter cloacae [4]): 1.6 µg/mL (≈ 3.13 µM)

SMILES: CO[C@]1(NC(C)=O)CN(S(=O)(=O)[O-])C1=O.[K+]
remaining at 24 h [19]: < 1% | RVmax [20]: < 0.01

SMILES: CC1(C)SC2[C@H](NC(=O)c3ccccc3)C(=O)N2C1C(=O)O (stereo partly specified)
RVmax [28]: 2

SMILES: CC(=O)OCC1=C(C(=O)O)N2C(=O)[C@@H](NC(=O)/C(=N/OCC(=O)O)c3csc(N)n3)C2SC1 (stereo partly specified)
RHR [6]: < 0.1 | RHR [11]: 3

SMILES: CC1=C(C(=O)O)N2C(=O)[C@@H](NC(=O)[C@@H](N)C3=CCC=CC3)C2SC1 (stereo partly specified)
Zone reduction (Escherichia coli [29]): 12% | Zone reduction (Staphylococcus aureus [30]): 25%

SMILES: CC(O)[C@H]1C(=O)N2C(C(=O)O)=C(SCCN)SC12 (stereo partly specified)
MIC (Escherichia coli [7]): 0.8 µg/mL (≈ 2.76 µM) | RVmax (Escherichia coli [8]): < 0.1 | MIC (Escherichia coli [9]): 1.5 µg/mL (≈ 5.17 µM)

Continued, values first:

MIC (Enterobacter cloacae [4]): > 100 µg/mL
SMILES: Cn1nnnc1SCC1=C(C(=O)O)N2C(=O)[C@@H](NC(=O)Cc3csc(N)n3)C2SC1 (stereo partly specified)

MIC (Klebsiella aerogenes [10]): 12.5 µg/mL | RHR [6]: 0.3 | RHR [11]: 6.4 | MIC (Klebsiella aerogenes [12]): 0.05 µg/mL | MIC (Escherichia coli [13]): < 0.05 µg/mL | MIC (Escherichia coli [14]): 0.1 µg/mL
SMILES: CO/N=C(/C(=O)N[C@@H]1C(=O)N(S(=O)(=O)[O-])[C@@H]1C)c1csc(N)n1.[K+]

MIC (Klebsiella aerogenes [15]): 0.4 µg/mL | MIC (Escherichia coli [16]): 0.4 µg/mL | RHR [6]: 12 | RHR [11]: 106 | MIC (Klebsiella aerogenes [17]): 100 µg/mL | MIC (Escherichia coli [18]): 6.3 µg/mL
SMILES: CO/N=C(/C(=O)N[C@H]1CN(S(=O)(=O)[O-])C1=O)c1csc(N)n1.[K+]

RHR (Staphylococcus aureus [21]): < 0.5 | MIC (Staphylococcus aureus [22]): 0.1 µg/mL | MIC (Staphylococcus aureus [23]): 0.2 µg/mL
SMILES: O=C(CSc1cc(Cl)nc(Cl)c1)N[C@H]1CN(OS(=O)(=O)[O-])C1=O.[K+]

MIC (Providencia rettgeri [24]): 0.4 µg/mL | MIC (Enterobacter cloacae [4]): 0.6 µg/mL
SMILES: Cn1nnnc1SCC1=C(C(=O)[O-])N2C(=O)[C@@H](NC(=O)[C@@H](NC(N)=O)c3ccco3)C2SC1.[Na+] (stereo partly specified)

MIC (Klebsiella aerogenes [25]): 0.2 µg/mL | MIC (Escherichia coli [26]): 0.4 µg/mL | MIC (Escherichia coli [27]): 0.1 µg/mL | RHR [6]: 1 | RHR [11]: 20 | MIC (Klebsiella aerogenes [17]): 100 µg/mL
SMILES: CO/N=C(/C(=O)N[C@@H]1C(=O)N(S(=O)(=O)[O-])[C@H]1C)c1csc(N)n1.[K+]

RHR (Staphylococcus aureus [21]): 1 | MIC (Staphylococcus aureus [22]): 0.1 µg/mL (≈ 0.24 µM) | MIC (Staphylococcus aureus [23]): 1.6 µg/mL (≈ 3.84 µM)
SMILES: CC1[C@H](NC(=O)CSc2cc(Cl)nc(Cl)c2)C(=O)N1OS(=O)(=O)O (single isomer, unassigned)

RHR (Staphylococcus aureus [21]): 2.6 | MIC (Staphylococcus aureus [22]): 0.2 µg/mL | MIC (Staphylococcus aureus [23]): 6.3 µg/mL
SMILES: C[C@H]1[C@H](NC(=O)CSc2cc(Cl)nc(Cl)c2)C(=O)N1OS(=O)(=O)[O-].[K+]

remaining at 24 h [19]: > 80% | RVmax [20]: 12
SMILES: CC(=O)N[C@H]1CN(S(=O)(=O)[O-])C1=O.[K+]

MIC (Providencia rettgeri [31]): > 100 µg/mL | RHR (Escherichia coli [32]): < 0.02
SMILES: CO/N=C(\C(=O)NC1CN(S(=O)(=O)[O-])C1=O)c1csc(N)n1.[K+] (stereo unspecified)

MIC (Escherichia coli [33]): 0.8 µg/mL | MIC (Escherichia coli [34]): 1.6 µg/mL
SMILES: CC(C)(O/N=C(/C(=O)N[C@H]1CN(C(=O)NS(C)(=O)=O)C1=O)c1csc(N)n1)C(=O)[O-].[K+]

Reference: ChEMBL document CHEMBL1122575, “Dependence of beta-lactamase stability on substructures within beta-lactam antibiotics” (J Med Chem, 1984)
